# Assay results published in ChEMBL document CHEMBL3885881, “DrugMatrix”.
# Species on record: Rattus norvegicus
# Experiment: DrugMatrix - Regimen: Daily Repeat
# Type: toxicity, organism-based, Sprague-Dawley
# Parameters: regimen Daily Repeat, gender Male, age 6-8 weeks
# Details: in vivo, po, route oral GAVAGE, vehicle 100 % WATER; for ABSOLUTE BASOPHIL / ABSOLUTE EOSINOPHIL / ABSOLUTE LYMPHOCYTE / ABSOLUTE MONOCYTE / ABSOLUTE SEGMENTED NEUTROPHIL / BASOPHIL / EOSINOPHIL / ERYTHROCYTE COUNT / HEMATOCRIT / HEMOGLOBIN / LEUKOCYTE COUNT / LYMPHOCYTE / MEAN CORPUSCULAR HEMOGLOBIN / MEAN CORPUSCULAR HEMOGLOBIN CONCENTRATION / MEAN CORPUSCULAR VOLUME / MONOCYTE / NEUTROPHIL / NUCLEATED RED BLOOD CELLS / PLATELET COUNT: tissue Blood; for ALANINE AMINOTRANSFERASE / ALBUMIN / ALKALINE PHOSPHATASE / ASPARTATE AMINOTRANSFERASE / BLOOD UREA NITROGEN / CARBON DIOXIDE / CHLORIDE / CHOLESTEROL / CREATINE PHOSPHOKINASE / CREATININE / GLUCOSE / LACTATE DEHYDROGENASE / LIPASE / PHOSPHORUS / POTASSIUM / SODIUM / TOTAL BILIRUBIN / TOTAL PROTEIN / URIC ACID: tissue Plasma
# [1] = 20 mg/kg, 120 h, dose level Low, time 5 day
# [2] = 70 mg/kg, 72 h, dose level High, time 3 day
# [3] = 70 mg/kg, 120 h, dose level High, time 5 day
structure (smiles),measurement,setting,value
C=CCC1(C(C)CCC)C(=O)NC(=O)NC1=O (centres undefined) [SECOBARBITAL],ABSOLUTE BASOPHIL,[1],0 CELLS/uL
same,ABSOLUTE EOSINOPHIL,[1],32 CELLS/uL
same,ABSOLUTE LYMPHOCYTE,[1],7003.67 CELLS/uL
same,ABSOLUTE MONOCYTE,[1],32 CELLS/uL
same,ABSOLUTE SEGMENTED NEUTROPHIL,[1],565.67 CELLS/uL
same,BASOPHIL,[1],0%
same,EOSINOPHIL,[1],0.33%
same,ERYTHROCYTE COUNT,[1],5.26 x10E6/uL
same,HEMATOCRIT,[1],32.97%
same,HEMOGLOBIN,[1],12.83 G/DL
same,LEUKOCYTE COUNT,[1],7.63 x10E3/uL
same,LYMPHOCYTE,[1],92%
same,MEAN CORPUSCULAR HEMOGLOBIN,[1],24.43 pg
same,MEAN CORPUSCULAR HEMOGLOBIN CONCENTRATION,[1],38.97 G/DL
same,MEAN CORPUSCULAR VOLUME,[1],62.7 fL
same,MONOCYTE,[1],0.33%
same,NEUTROPHIL,[1],7.33%
same,NUCLEATED RED BLOOD CELLS,[1],0.33 /100WBC
same,PLATELET COUNT,[1],1182 x10E3/uL
same,ALANINE AMINOTRANSFERASE,[1],49.33 u/L
same,ALBUMIN,[1],3.97 G/DL
same,ALKALINE PHOSPHATASE,[1],382 u/L
same,ASPARTATE AMINOTRANSFERASE,[1],77.67 u/L
same,BLOOD UREA NITROGEN,[1],13.67 mg/dL
same,CARBON DIOXIDE,[1],34 mmol/L
same,CHLORIDE,[1],99 MEQ/L
same,CHOLESTEROL,[1],77.33 mg/dL
same,CREATINE PHOSPHOKINASE,[1],254 u/L
same,CREATININE,[1],0.16 mg/dL
same,GLUCOSE,[1],144 mg/dL
same,LACTATE DEHYDROGENASE,[1],142.33 u/L
same,LIPASE,[1],9 u/L
same,PHOSPHORUS,[1],11.07 mg/dL
same,POTASSIUM,[1],5.94 MEQ/L
same,SODIUM,[1],144.5 MEQ/L
same,TOTAL BILIRUBIN,[1],0.17 mg/dL
same,TOTAL PROTEIN,[1],5.87 G/DL
same,URIC ACID,[1],0.4 mg/dL
same,ABSOLUTE BASOPHIL,[2],0 CELLS/uL
same,ABSOLUTE EOSINOPHIL,[2],0 CELLS/uL
same,ABSOLUTE LYMPHOCYTE,[2],6560.67 CELLS/uL
same,ABSOLUTE MONOCYTE,[2],45.33 CELLS/uL
same,ABSOLUTE SEGMENTED NEUTROPHIL,[2],794 CELLS/uL
same,BASOPHIL,[2],0%
same,EOSINOPHIL,[2],0%
same,ERYTHROCYTE COUNT,[2],5.13 x10E6/uL
same,HEMATOCRIT,[2],31.93%
same,HEMOGLOBIN,[2],12.3 G/DL
same,LEUKOCYTE COUNT,[2],7.4 x10E3/uL
same,LYMPHOCYTE,[2],88.67%
same,MEAN CORPUSCULAR HEMOGLOBIN,[2],24 pg
same,MEAN CORPUSCULAR HEMOGLOBIN CONCENTRATION,[2],38.53 G/DL
same,MEAN CORPUSCULAR VOLUME,[2],62.27 fL
same,MONOCYTE,[2],0.67%
same,NEUTROPHIL,[2],10.67%
same,NUCLEATED RED BLOOD CELLS,[2],0.33 /100WBC
same,PLATELET COUNT,[2],827 x10E3/uL
same,ALANINE AMINOTRANSFERASE,[2],56.67 u/L
same,ALBUMIN,[2],4.03 G/DL
same,ALKALINE PHOSPHATASE,[2],339 u/L
same,ASPARTATE AMINOTRANSFERASE,[2],83 u/L
same,BLOOD UREA NITROGEN,[2],12 mg/dL
same,CARBON DIOXIDE,[2],34.67 mmol/L
same,CHLORIDE,[2],98.67 MEQ/L
same,CHOLESTEROL,[2],74.67 mg/dL
same,CREATINE PHOSPHOKINASE,[2],397.33 u/L
same,CREATININE,[2],0.11 mg/dL
same,GLUCOSE,[2],142.33 mg/dL
same,LACTATE DEHYDROGENASE,[2],178.33 u/L
same,LIPASE,[2],9.67 u/L
same,PHOSPHORUS,[2],11.4 mg/dL
same,POTASSIUM,[2],6.11 MEQ/L
same,SODIUM,[2],143 MEQ/L
same,TOTAL BILIRUBIN,[2],0.17 mg/dL
same,TOTAL PROTEIN,[2],5.87 G/DL
same,URIC ACID,[2],0.63 mg/dL
same,ABSOLUTE BASOPHIL,[3],0 CELLS/uL
same,ABSOLUTE EOSINOPHIL,[3],40.33 CELLS/uL
same,ABSOLUTE LYMPHOCYTE,[3],5577 CELLS/uL
same,ABSOLUTE MONOCYTE,[3],23 CELLS/uL
same,ABSOLUTE SEGMENTED NEUTROPHIL,[3],693 CELLS/uL
same,BASOPHIL,[3],0%
same,EOSINOPHIL,[3],0.67%
same,ERYTHROCYTE COUNT,[3],5.58 x10E6/uL
same,HEMATOCRIT,[3],33.8%
same,HEMOGLOBIN,[3],13.07 G/DL
same,LEUKOCYTE COUNT,[3],6.33 x10E3/uL
same,LYMPHOCYTE,[3],88%
same,MEAN CORPUSCULAR HEMOGLOBIN,[3],23.4 pg
same,MEAN CORPUSCULAR HEMOGLOBIN CONCENTRATION,[3],38.67 G/DL
same,MEAN CORPUSCULAR VOLUME,[3],60.5 fL
same,MONOCYTE,[3],0.33%
same,NEUTROPHIL,[3],11%
same,NUCLEATED RED BLOOD CELLS,[3],0.33 /100WBC
same,PLATELET COUNT,[3],1210.33 x10E3/uL
same,ALANINE AMINOTRANSFERASE,[3],59.33 u/L
same,ALBUMIN,[3],4.03 G/DL
same,ALKALINE PHOSPHATASE,[3],373.67 u/L
same,ASPARTATE AMINOTRANSFERASE,[3],85.33 u/L
same,BLOOD UREA NITROGEN,[3],15.33 mg/dL
same,CARBON DIOXIDE,[3],32.33 mmol/L
same,CHLORIDE,[3],100 MEQ/L
same,CHOLESTEROL,[3],63.33 mg/dL
same,CREATINE PHOSPHOKINASE,[3],260.67 u/L
same,CREATININE,[3],0.13 mg/dL
same,GLUCOSE,[3],147 mg/dL
same,LACTATE DEHYDROGENASE,[3],127.67 u/L
same,LIPASE,[3],9 u/L
same,PHOSPHORUS,[3],10.93 mg/dL
same,POTASSIUM,[3],5.66 MEQ/L
same,SODIUM,[3],145.65 MEQ/L
same,TOTAL BILIRUBIN,[3],0.1 mg/dL
same,TOTAL PROTEIN,[3],5.8 G/DL
same,URIC ACID,[3],0.73 mg/dL
